Assay results reported in article PMC3610419, “A Randomized, Double-Blind Placebo Controlled Trial of Balapiravir, a Polymerase Inhibitor, in Adult Dengue Patients” (The Journal of Infectious Diseases, 2012).
Marks after values point to notes of the source that are not given here.

What was measured:
NS1 = NS1 antigenemia (Platelia NS1 assay) in adult dengue patients, randomized placebo-controlled trial; type: in vivo, human; details: Kaplan-Meier estimate
Method: (§1) Randomization to treatment group was by computer-generated randomization sequencing in blocks of 2. Balapiravir was formulated in a 500-mg film-coated tablet. The placebo consisted of an identical looking tablet containing excipient only. All balapiravir and placebo tablets were provided by F. Hoffmann-La Roche. Patients in cohort 1 (n = 20) received 1500 mg of balapiravir or an identical placebo orally every 12 hours for 5 days (10 doses). The decision to dose escalate (to 3000 mg) was made after review of the partially unblinded group mean clinical and laboratory data acquired from patients in cohort 1. Patients in cohort 2 (n = 44) received 3000 mg of balapiravir or placebo orally twice a day for 5 days (10 doses).

[1] = Predefined clinical and routine laboratory endpoints in adult dengue patients; type: in vivo, human; details: for Maximum percentage increase of hematocrit level, Mean / Maximum percentage increase of hematocrit level, Median (IQR): from baseline; for Minimum quality of life score, Mean / Minimum quality of life score, Median (IQR): visual analogue scale 0-100
Text: Key viremia endpoints of the study were as follows: area under the log-transformed viremia curve (AUC) from first dose to the end of study day 7 (study hour 168), calculated on the basis of the trapezoidal rule with values below the limit of detection replaced by half of the detection limit; time to first viremia level of <1000 copies/mL until study day 7; and time to the first negative NS1 test result. Other predefined key endpoints included fever clearance time, defined as the time from the start of treatment to the start of the first 48-hour period during which axillary temperature remained <37.5°C; maximum hematocrit level; maximum percentage increase of hematocrit level from baseline; platelet count nadir; and lowest recorded quality of life score.
Time to event endpoints were compared between treatment groups on the basis of Cox regression and continuous endpoints on the basis of linear regression. Analyses were adjusted for the predose value of the respective endpoint; viremia and NS1 endpoints were additionally adjusted for dengue serotype. For all endpoints, we report P values of a trend test for a dose-response relationship with treatment entered as a continuous variable with values 0 (placebo), 1 (low-dose), and 2 (high-dose) into the regression model.

[2] = Safety and tolerability, adverse events in adult dengue patients; details: for safety and tolerability: 1500 mg or 3000 mg orally twice daily for 5 days, adult dengue patients
Method: as §1
Eligible patients remained in clinic during a 7-day in-patient period then returned for follow-up visits on study days 14, 28, and 84. During the inpatient period, patient vital signs were assessed every 6 hours and routine laboratory investigations were performed daily or as clinically indicated. Safety and tolerability were monitored at regular intervals and included physical examinations, vital signs, electrocardiograms, clinical laboratory assessments, incidence of clinical adverse events, and concomitant medications. Any clinically significant abnormal laboratory test results were followed up until resolved or stabilized. A quality of life assessment, using a questionnaire and a visual analog scale, was implemented on study days 1, 3, 5, 7, 14, 28, and 84.

HCV = details: cited from earlier work
[3] = High-dose (3000 mg twice a day, 5 days), n = 22
[4] = Low-dose (1500 mg twice a day, 5 days), n = 10
[5] = High dose (3000 mg twice a day, 5 days), n=22
[6] = Low dose (1500 mg twice a day, 5 days), n=10

Structure (SMILES): CC(C)C(=O)OC[C@@]1(N=[N+]=[N-])O[C@@H](n2ccc(N)nc2=O)[C@H](OC(=O)C(C)C)[C@@H]1OC(=O)C(C)C [Balapiravir]
- Median time to first negative NS1 test result (IQR) (NS1; [3]): 4 (3–6) d
- Median time to first negative NS1 test result (IQR) (NS1; [4]): 3 (3–14) d
- effect on fever clearance time, clinical signs and routine laboratory findings ([1]; 1500 mg or 3000 mg twice daily for 5 days versus placebo): did not affect
- Maximum ALT level, Mean [1, 3]: 75.2 IU/L
- Maximum ALT level, Median (IQR) [1, 3]: 68.5 (33.3–104.5) IU/L
- Maximum AST level, Mean [1, 3]: 118.4 IU/L
- Maximum AST level, Median (IQR) [1, 3]: 108.0 (45.0–151.5) IU/L
- Maximum INR, Mean [1, 3]: 1.27
- Maximum INR, Median (IQR) [1, 3]: 1.17 (1.09–1.22)
- Maximum aPTT, Mean [1, 3]: 41.8 s
- Maximum aPTT, Median (IQR) [1, 3]: 41.8 (38.3–44.1) s
- Maximum recorded hematocrit level, Mean [1, 3]: 44.6%
- Maximum recorded hematocrit level, Median (IQR) [1, 3]: 45.1 (41.8–46.1) %
- Median fever clearance time (IQR) [1, 3]: 3 (2–4) d
- Minimum fibrinogen level, Mean [1, 3]: 1.88 g/L
- Minimum fibrinogen level, Median (IQR) [1, 3]: 1.86 (1.60–2.03) g/L
- Minimum platelet count, Mean [1, 3]: 54.4 10^9 cells/L
- Minimum platelet count, Median (IQR) [1, 3]: 52 (25.5–64.8) 10^9 cells/L
- Maximum percentage increase of hematocrit level, Mean [1, 3]: 2.6%
- Maximum percentage increase of hematocrit level, Median (IQR) [1, 3]: 1.2 (−4.1–9.2) %
- Minimum quality of life score, Mean [1, 3]: 74.45
- Minimum quality of life score, Median (IQR) [1, 3]: 77.5 (67.8–82.0)
- Maximum ALT level, Mean [1, 4]: 96.3 IU/L
- Maximum ALT level, Median (IQR) [1, 4]: 97.5 (58.0–128.8) IU/L
- Maximum AST level, Mean [1, 4]: 143.6 IU/L
- Maximum AST level, Median (IQR) [1, 4]: 157.5 (116.5–171.5) IU/L
- Maximum INR, Mean [1, 4]: 1.17
- Maximum INR, Median (IQR) [1, 4]: 1.16 (1.05–1.26)
- Maximum aPTT, Mean [1, 4]: 41.3 s
- Maximum aPTT, Median (IQR) [1, 4]: 40.6 (39.6–43.1) s
- Maximum recorded hematocrit level, Mean [1, 4]: 46.7%
- Maximum recorded hematocrit level, Median (IQR) [1, 4]: 45.8 (43.8–49.3) %
- Median fever clearance time (IQR) [1, 4]: 3 (2–4) d
- Minimum fibrinogen level, Mean [1, 4]: 1.94 g/L
- Minimum fibrinogen level, Median (IQR) [1, 4]: 2.08 (1.68–2.25) g/L
- Minimum platelet count, Mean [1, 4]: 26.3 10^9 cells/L
- Minimum platelet count, Median (IQR) [1, 4]: 23 (16.5–33.0) 10^9 cells/L
- Maximum percentage increase of hematocrit level, Mean [1, 4]: 11.5%
- Maximum percentage increase of hematocrit level, Median (IQR) [1, 4]: 11.8 (3.1–15.3) %
- Minimum quality of life score, Mean [1, 4]: 78.3
- Minimum quality of life score, Median (IQR) [1, 4]: 77.0 (69.8–89.0)
- reported serious adverse events (SAEs) ([2]; 1500 mg balapiravir arm): 1
- safety and tolerability [2]: safe and well-tolerated
- safety and tolerability ([2]; listed as balapiravir): well tolerated
- reported serious adverse events (SAEs) ([2]; 3000 mg balapiravir arm): 1
- ABDOMINAL PAIN [2, 5]: 3 (13.64%) no.pt. (%)
- ABNORMAL INR [2, 5]: 1 (4.55%) no.pt. (%)
- ALTERATION OF TASTE [2, 5]: 0 (0%) no.pt. (%)
- ANOREXIA [2, 5]: 1 (4.55%) no.pt. (%)
- ANY EVENT - no (%) patients with at least one event [2, 5]: 19 (86.36%) no.pt. (%)
- ANY EVENT - no of events [2, 5]: 65
- BRUISING [2, 5]: 2 (9.09%) no.pt. (%)
- COUGH [2, 5]: 4 (18.18%) no.pt. (%)
- DECREASE OF FIBRINOGEN [2, 5]: 4 (18.18%) no.pt. (%)
- DIARRHOEA [2, 5]: 8 (36.36%) no.pt. (%)
- DYSPEPSIA [2, 5]: 1 (4.55%) no.pt. (%)
- ELEVATED ALT [2, 5]: 0 (0%) no.pt. (%)
- ELEVATED AST [2, 5]: 0 (0%) no.pt. (%)
- EPISTAXIS [2, 5]: 0 (0%) no.pt. (%)
- FLATULENCE [2, 5]: 0 (0%) no.pt. (%)
- GUM BLEEDING [2, 5]: 6 (27.27%) no.pt. (%)
- HEADACHE [2, 5]: 5 (22.73%) no.pt. (%)
- HEMATEMESIS [2, 5]: 0 (0%) no.pt. (%)
- HEMATURIA [2, 5]: 1 (4.55%) no.pt. (%)
- HEMOPTYSIS [2, 5]: 0 (0%) no.pt. (%)
- HYPOALBUMINEMIA [2, 5]: 1 (4.55%) no.pt. (%)
- ITCHY RASH ON CHEEK, AND FOREHEAD [2, 5]: 0 (0%) no.pt. (%)
- NARROW PULSE PRESSURE [2, 5]: 0 (0%) no.pt. (%)
- NAUSEA [2, 5]: 2 (9.09%) no.pt. (%)
- PETECHIAE [2, 5]: 6 (27.27%) no.pt. (%)
- PROLONGED APTT [2, 5]: 7 (31.82%) no.pt. (%)
- PROTEINURIA [2, 5]: 0 (0%) no.pt. (%)
- PRURITIS [2, 5]: 0 (0%) no.pt. (%)
- RETINAL INJURY [2, 5]: 0 (0%) no.pt. (%)
- SORE THROAT [2, 5]: 0 (0%) no.pt. (%)
- VERTIGO [2, 5]: 0 (0%) no.pt. (%)
- VOMIT [2, 5]: 2 (9.09%) no.pt. (%)
- THROMBOCYTOPENIA ([2]; High dose (3000 mg twice a day, 5 days), n=22, one patient in this group had a SAE): 11 (50%) ^a no.pt. (%)
- ABDOMINAL PAIN [2, 6]: 0 (0%) no.pt. (%)
- ABNORMAL INR [2, 6]: 0 (0%) no.pt. (%)
- ALTERATION OF TASTE [2, 6]: 0 (0%) no.pt. (%)
- ANOREXIA [2, 6]: 2 (20%) no.pt. (%)
- ANY EVENT - no (%) patients with at least one event [2, 6]: 8 (80%) no.pt. (%)
- ANY EVENT - no of events [2, 6]: 30
- BRUISING [2, 6]: 0 (0%) no.pt. (%)
- COUGH [2, 6]: 0 (0%) no.pt. (%)
- DECREASE OF FIBRINOGEN [2, 6]: 1 (10%) no.pt. (%)
- DIARRHOEA [2, 6]: 4 (40%) no.pt. (%)
- DYSPEPSIA [2, 6]: 1 (10%) no.pt. (%)
- ELEVATED ALT [2, 6]: 0 (0%) no.pt. (%)
- ELEVATED AST [2, 6]: 0 (0%) no.pt. (%)
- EPISTAXIS [2, 6]: 0 (0%) no.pt. (%)
- FLATULENCE [2, 6]: 0 (0%) no.pt. (%)
- GUM BLEEDING [2, 6]: 0 (0%) no.pt. (%)
- HEADACHE [2, 6]: 2 (20%) no.pt. (%)
- HEMATEMESIS [2, 6]: 0 (0%) no.pt. (%)
- HEMATURIA [2, 6]: 0 (0%) no.pt. (%)
- HEMOPTYSIS [2, 6]: 0 (0%) no.pt. (%)
- HYPOALBUMINEMIA [2, 6]: 1 (10%) no.pt. (%)
- ITCHY RASH ON CHEEK, AND FOREHEAD [2, 6]: 1 (10%) no.pt. (%)
- NAUSEA [2, 6]: 0 (0%) no.pt. (%)
- PETECHIAE [2, 6]: 4 (40%) no.pt. (%)
- PROLONGED APTT [2, 6]: 2 (20%) no.pt. (%)
- PROTEINURIA [2, 6]: 1 (10%) no.pt. (%)
- PRURITIS [2, 6]: 1 (10%) no.pt. (%)
- RETINAL INJURY [2, 6]: 0 (0%) no.pt. (%)
- SORE THROAT [2, 6]: 0 (0%) no.pt. (%)
- THROMBOCYTOPENIA [2, 6]: 4 (40%) no.pt. (%)
- VERTIGO [2, 6]: 1 (10%) no.pt. (%)
- VOMIT [2, 6]: 4 (40%) no.pt. (%)
- NARROW PULSE PRESSURE ([2]; Low dose (1500 mg twice a day, 5 days), n=10, one patient in this group had a SAE): 1 (10%) ^a no.pt. (%)
- antiviral effect (reduction in plasma HCV RNA level) (HCV; 500 mg twice daily): no significant antiviral effect
- clinical safety in extended courses (HCV; extended courses (2–3 months) in conjunction with pegylated interferon and ribavirin, HCV infection): clinical safety signals were detected
- effect on plasma HCV levels (HCV; monotherapy twice per day for 14 days, chronic HCV): reduced plasma HCV levels in a dose- and time-dependent manner
- tolerability (HCV; monotherapy twice per day for 14 days, doses up to 3000 mg, adult male patients): well-tolerated
